Results on four substances are retold here after article PMC11167521, “Inhibition of neuraminidase-1 sialidase activity by interfering peptides impairs insulin receptor activity in vitro and glucose homeostasis in vivo” (The Journal of Biological Chemistry, 2024).

The test system of one data set is HepG2 cells. Put plainly: MTT cell viability assay, HepG2 cells. The class given is cell-based, human. To be noted: peptide 0.1 μM in LDS micelles, 3 h and 24 h, compared to control without treatment, n = 3-4. The protocol:
(§1) The concentration of 0.1 μM and two incubation times, 3 h (Fig. S1, A and C) and 24 h (Fig. S1, B and D) have been tested. […] The choice of this concentration was based on the previous study by Albrecht et al. ([31]).
(§2) HepG2 cell line and COS-7^IR cells were, respectively, harvested in 96-well plates at a cell density of 80,000 cells/well and 10,000 cells/well. After 24 h, cells were incubated with IntPep-RKR or mutIntPep-RKR at 0.1 μM or only with LDS micelles during 3 h or 24 h. Then, the medium has been removed and cells were incubated in the dark during 4 h at 37 °C with a 3-(4-5-dimethylthiazol-2-yl) -2,5-diphenyltetrazolium bromide solution (MTT, Sigma, 5 mg/ml) diluted in PBS (one-sixth v/v). The medium was removed, and 100 μl of dimethyl sulfoxide were added in each well. Cell viability was measured at 570 nm with Infinite F200 Pro (TECAN) hardware using Magellan software (https://lifesciences.tecan.com/software-magellan?p=tab--2).
(§3) HepG2 cells (A,B) and COS-7 cells
(§4) overexpressing IR (C,D) were incubated with mutIntPep-RKR, IntPep-RKR (0.1 µm) or LDS
(§5) micelles for 3h (A,C) or for 24h (B,D).
(§6) ZS equipment (Malvern Panalytical, UK). Water was used as a reference dispersing medium.
(§7) Micelles sizes were expressed in volume (as the diameter of a theorical sphere in nanometer),

For data set [1], the system named is COS-7 cells overexpressing IR (COS-7^IR). Put plainly: MTT cell viability assay, COS-7 cells overexpressing IR. To be noted: peptide 0.1 μM in LDS micelles, 3 h and 24 h, compared to control without treatment, n = 3-4. The class given is cell-based, African green monkey. The protocol:
as §1, §2, §3, §4, §5, §6, §7

Another data set has as its target T1, membrane NEU-1 dimers (Homo sapiens, UniProt Q99519).
T1 construct: HepG2 endogenously expresses IR and NEU-1; endogenous in cells; host or cells: HepG2 (ATCC HB-8065)
Put plainly: NEU-1 dimerization in HepG2 cell membrane extracts (Western blot). The class given is biochemical. The note with it: 0.1 μM, n = 4, mean ± SEM.

Data set [2] concerns the target T2, membrane NEU-1 (Homo sapiens, UniProt Q99519). Nature of the data set: Membrane NEU-1 sialidase activity, HepG2 crude membranes (Muf-NANA). The class given is biochemical. The note with it: 0.1 μM, 15 min incubation, compared to mutIntPep-RKR at same concentration, n = 4-5, mean ± SEM.
Description: HepG2 cells grown in 75 cm^2 flasks and COS-7 cell lines grown in 10 cm Petri dishes were washed twice with cold PBS and resuspended with 1 ml cold TEM buffer extemporaneously completed with 1% (v/v) protease inhibitor cocktail, 10 mM NaF, 2 mM Na3VO4. After sonication, samples were centrifuged at 600g for 10 min at 4 °C to remove nonlysed cells and nuclei. Supernatants were extracted and centrifuged at 20,000g for 45 min at 4 °C. Crude membrane-containing pellets were then resuspended in 400 μl Mes buffer (2-(N-morpholino) ethanesulfonic acid hydrate, 20 mM, pH 4.5). Protein concentration was then determined by bicinchoninic acid assay to measure sialidase activity from 50 μg of crude membrane proteins. Samples were incubated with peptides for 15 min on ice. Muf-NANA (2′-(4-MethylUmbelliFeryl)-alpha-D-N-AcetylNeuraminic Acid) (Biosynth) at a concentration of 400 μM was then added and incubated with samples for 2 h at 37 °C in the dark. The reaction was then stopped by adding Na2CO3 (Merck). A total of 150 μl of each sample were finally transferred in black 96 well plates. Emitted fluorescence was measured with Infinite F200 Pro (TECAN) hardware and Magellan software (excitation: 360 nm/emission: 465 nm) (https://lifesciences.tecan.com/software-magellan?p=tab--2).
Data set [3] deals with T2, membrane NEU-1. Nature of the data set: Membrane NEU-1 sialidase activity, COS-7^NEU-1 crude membranes (Muf-NANA). The class given is biochemical. Further details: host or cells: COS-7 (ATCC CRL-1651) or COS-7^IR, transient transfection, 72 h. The note with it: COS-7^NEU-1 crude membrane, 0.1 μM, 15 min, compared to mutIntPep-RKR, n = 4-5, mean ± SEM. From the text: (§8) Plasmid encoding human IR was a gift from Dr Tarik Issad (Institut Cochin, Paris, France) and plasmid encoding human PPCA protein was provided by Pr. Alessandra d’Azzo (St Jude Children's Research Hospital, Memphis, USA). These two plasmids have been previously described ([50], [51]). Plasmid encoding human NEU-1 was purchased from ImaGenes GmbH. For cell transfections, JetPEI DNA transfection reagent was purchased from Polyplus transfection. […] HepG2 cells were harvested in 1 g/L glucose Dulbecco’s modified Eagle’s medium supplemented with 10% heat inactivated fetal bovine serum, 100 units/ml penicillin, 0,1 mg/ml streptomycin at 37 °C in a humidified atmosphere at 5% CO2. COS-7 cells were maintained in culture in 4.5 g/L glucose Dulbecco’s modified Eagle’s medium supplemented with 10% heat-inactivated fetal bovine serum, 100 units/ml penicillin, 0.1 mg/ml streptomycin at 37 °C in a humidified atmosphere at 5% CO2. COS-7 cells have been stably transfected with plasmid encoding human IR. Geneticin selection (400 μg/ml) has been made after transfection to obtain a stable cell line overexpressing IR named COS-7^IR. Geneticin (80 μg/ml) were added in the completed medium to maintain this cell line. […]

The target in data set [4] is T2, membrane NEU-1. Nature of the data set: Membrane NEU-1 sialidase activity, COS-7^IR/NEU-1 crude membranes (Muf-NANA). To be noted: COS-7^IR/NEU-1 crude membrane, 0.1 μM, 15 min, compared to mutIntPep-RKR, n = 4-5, mean ± SEM. The class given is biochemical. Set-up: host or cells: COS-7 (ATCC CRL-1651) or COS-7^IR, transient transfection, 72 h.
Description: as §8

Data set [5] has as its target T3, membrane NEU-1 in HepG2 cells (Homo sapiens, UniProt Q99519).
T3 construct: HepG2 endogenously expresses IR and NEU-1; endogenous in cells; host or cells: HepG2 (ATCC HB-8065)
Put plainly: Colocalization of fluorescent peptide with NEU-1 by confocal microscopy. The class given is cell-based. The note with it: fixed HepG2 cells, 0.1 μM in LDS micelles, 1 h, n = 3. The protocol:
IntPeps coupled with FITC and solubilized in LDS micelles have been incubated at 0.1 μM for 1 h with fixed HepG2 cells.
HepG2 cells were seeded onto coverslips in 24-well plates at 50,000 cells/well. After 24 h, cells were fixed with paraformaldehyde 1% (Euromedex) for 5 min followed by a second incubation with paraformaldehyde 2% for 10 min at room temperature (RT). Cells were washed twice for 5 min with PBS and permeabilized with Triton 0.2% during 5 min at RT. A total of 3% bovine serum albumin (BSA) was disposed in each well for 1 h at RT after three washes with PBS for 5 min. Cells were then incubated with NEU-1 mouse monoclonal antibody (1/200 in PBS with 3% BSA) (Santa Cruz Biotechnology) for 2 h at RT. Then, this solution was removed, and the cells were incubated with anti-mouse secondary antibody coupled with Alexa Fluor 568 (1/1000 in PBS with 3% BSA) (Invitrogen) for 2 h at RT in the dark. After washes, cells were incubated with IntPeps coupled with FITC (0.1 μM) or with FITC alone (0.1 μM) at RT in the dark. Coverslips were then mounted in a medium containing 4′,6-diamidino-2-phenylindole (Prolong gold, antifade, Invitrogen). Slides were finally observed using confocal microscopy (Zeiss LSM 710) and featured slices were analyzed with Image J software (https://imagej.net/ij/download.html).

For data set [6], the system named is C57Bl/6J mice. Nature of the data set: Systemic and cellular toxicity, plasma AST, CRP and LDH in mice. The class given is in vivo, mouse. The protocol: (§9) Experiments procedures were evaluated by research ethics committee of the University of Reims Champagne-Ardenne and approved by the French Ministry of Higher Education, Research and Innovation (APAFis #33891-2021111016547019). Five C57Bl/6J male and five female mice (Janvier Labs), aged 6 weeks, were maintained in a 12/12-h light/dark cycle and in a temperature and humidity-controlled environment. All mice had ad libitum access to a diet without chlorophyll (#U8959, SAFE diet) and water during the experimental period. Mice weight was measured twice per week throughout treatment. Weight gain or loss was then calculated and normalized to the weight measurement of the first week. The food intake was evaluated with weight feeders during the last week of treatment and every day. This weight was then divided by the number of mice in each cage.
(§10) Treatments have been started when mice were aged 8 weeks. Mice were under diet without chlorophyll (#U8959, SAFE diet) 2 weeks before the beginning of treatments to minimize the background noise of fluorescence measurements. LDS micelles or Cy5-IntPep-RKR were prepared as described previously and injected intraperitoneally at 100 μg/kg twice per week (100 μl).
Blood samples were collected before and after 8-weeks treatment, respectively, with LDS micelles or Cy5-IntPep-RKR by retroorbital and intracardiac pathway with sterile heparin Pasteur pipets and sterile needle in lithium heparin MiniCollect tubes (Greiner Bio-One). Animals were under isoflurane anesthesia during blood recovery. After centrifugation (3000 rpm, 10 min), plasma samples were then recovered in 1.5 ml eppendorfs and conserved at −20 °C. Finally, these samples were sent to the Institut Clinique de la Souris (Illkirch, France) to quantify several parameters as AST, CRP, and LDH. Graphics represent the percentages of observed variation between values obtained before and after 8-weeks treatment with LDS micelles or Cy5-IntPep-RKR.

Data set [7] concerns C57Bl/6J mice. Put plainly: Biodistribution of fluorescent peptide in mice (fluorescence molecular tomography). The class given is in vivo, mouse. To be noted: 100 μg/kg i.p. twice per week. As for the experimental part:
as §9, §10
Fluorescence measurements in entire body were realized in 13 mm cassette under isoflurane anesthesia (with PerkinElmer fluorescence molecular tomography 4000) at first, second, fifth, seventh, and eighth weeks of the treatment and 15 min after injection of fluorescent peptides. Organs were collected at the end of the treatment and placed on another cassette to measure their fluorescence with the same device. To remove the potential autofluorescence of certain organs, organ fluorescence of mice receiving LDS micelle injection (twice per week at 100 μg/kg) was measured and subtracted to those of mice receiving Cy5-IntPep-RKR. The measurement of organ fluorescence has been converted in ng of peptides per gram of organ and represented in % of peptides per organ. The software TrueQuant has been used for analyzes (https://www.perkinelmer.com.cn/lab-products-and-services/resources/in-vivo-imaging-software-downloads.html?_ga=2.29909951.1041849854.1637318373-1604795059.1637318373). The geometric size of the region of interest (ROI) background was between 40 and 41.5 mm^3, and one of the ROI was between 7900 and 8100 mm^3 in the entire body. The geometric size of the ROI background was the same in organ per organ biodistribution and one of the ROI for each organ approximatively as followed: the adipose tissue (1825 mm^3), the spleen (1095 mm^3), the stomach (2555 mm^3), the bladder (594 mm^3), the muscle (1142 mm^3), the liver (3379 mm^3), and the kidneys (1946 mm^3).

Data set [8] deals with C57Bl/6J mice. Nature of the data set: Weight and food intake during 8 weeks of treatment in mice. The class given is in vivo, mouse. The note with it: compared to LDS micelles. The protocol:
as §9, §10

The test system of data set [9] is C57Bl/6J mice. Put plainly: Glycemia measurement in mice. The class given is in vivo, mouse. As for the experimental part: as §10
A slight incision at tail was made to collect a drop of blood (<10 μl). The nonfasted blood glucose was then measured under anesthesia for all groups with Contour Plus device and reactive strips before injection and 30 min after injection of LDS micelles or Cy5-IntPep-RKR at 100 μg/kg. Data were then normalized for each group by comparison with glycemia value before injection.

Where [10] appears, read: 100 μg/kg i.p. twice per week for 8 weeks, versus LDS micelles group.
Setting [11] is: after 8 weeks, organ fluorescence, n = 10, mean ± SEM.

No end group written: not given here.

Description for membrane NEU-1 dimers: HepG2 cells grown in 75 cm^2 flasks at 80% of confluence were washed twice with cold PBS and resuspended with 1 ml cold TEM buffer (75 mM Tris, 2 mM EDTA, 12 mM MgCl2, at pH 7,5) extemporaneously completed with 1% (v/v) protease inhibitor cocktail, 10 mM NaF, and 2 mM Na3VO4. After sonication, samples were centrifuged at 600g for 10 min at 4 °C to remove unlysed cells and nuclei. Supernatants were collected and centrifuged at 20,000g for 45 min at 4 °C. Crude membrane-containing pellets were then resuspended in TEM buffer supplemented with 1% (w/v) CHAPS {3-[(3-cholamidopropyl) dimethylammonio]-1-propanesulfonate} (Sigma-Aldrich). Cell membranes were then incubated with peptides at 0.1 μM and solubilized for 3 h at 4 °C under gentle end-over-end mixing. Supernatants were recovered after a centrifugation step (20,000g, 45 min, and 4 °C). These samples were then used for Western blot analyzes.
Protein samples were diluted in Laemmli buffer (500 mM Tris, 10% (w/v) SDS, 20% saccharose (w/v), 0.5% (w/v) bromophenol blue, 10% (v/v) β-mercaptoethanol, pH 6.8) and heated for 5 min at 100 °C. […]
Chemiluminescent protein detection was done by using ECL Prime Kit (GE Healthcare, Orsay, France). […] Quantification of bands intensity has been made using Image Studio Lite software (https://www.licor.com/bio/image-studio/).

Consider ELVDPVVAAGAVVTSSGIVFFSRKR [IntPep-RKR], for which the “cell toxicity (cell viability, MTT)” value (with HepG2 cells; in data set [1]) was “do not induce cell toxicity” in each case. Moreover, the “decrease of the formation of NEU-1 dimers” value at membrane NEU-1 dimers (HepG2 cell membrane extracts, 3 h at 4 °C, compared to mutIntPep-RKR) is reported as 30.7% ± 5.6%. The “decrease of the ratio NEU-1 dimers/NEU-1 monomers” value at membrane NEU-1 dimers (HepG2 cell membranes, normalized to mutIntPep-RKR condition) is recorded as 42.4% ± 7.3%. Moreover, the “decrease of membrane NEU-1 sialidase activity” value on membrane NEU-1 [2] was 32.6% ± 5.7%; at membrane NEU-1 [3], 35.3% ± 7.6%; at membrane NEU-1 [4], 18.1% ± 2.9%.
With “ELVDPVVVAIAVVTSSIIAFFSRKR [mutIntPep-RKR]”, the “cell toxicity (cell viability, MTT)” value (in the data set on HepG2 cells; in data set [1]) was “do not induce cell toxicity” each time.
As for “FITC-LC- E312LVDPVVAAGAVVTSSGIVFFS333-RKR [FITC-IntPep-RKR, IntPeps coupled with FITC and solubilized in LDS micelles]”, the “colocalization with NEU-1” value in data set [5] is “colocalization areas at the plasma membrane”.
For the substance “H-C(Cy5)-E312LVDPVVAAGAVVTSSGIVFFSRKR333-NH2 [Cy5-IntPep-RKR, IntPeps coupled with cyanine-5, injected in LDS micelles]”, in the data set on C57Bl/6J mice [6] (setting [10]), the “plasma aspartate transaminase (AST) activity” value was “No significant difference”, the “plasma expression level of C-reactive protein (CRP)” value is listed as “No significant difference” and the “plasma lactate dehydrogenase (LDH) activity” value is on record as “No significant difference”. Further, in the data set on C57Bl/6J mice [6] (100 μg/kg i.p. twice per week, comparing data before and after 8-week treatment, mean ± SEM), the “decrease of CRP level” value was 21.11% ± 3.1%. In the data set on C57Bl/6J mice [6] (8-week treatment, two injections per week at 100 μg/kg), the toxicity and inflammation result was “did not induce toxicity and inflammation”. In the data set with C57Bl/6J mice [7] (15 min after injection, weeks 1,2,5,7 and 8), the “whole body fluorescence distribution” value is “well distributed in the whole organism”. The “% of peptides per organ, white adipose tissue” value with C57Bl/6J mice [7] (after 8 weeks, organ fluorescence minus autofluorescence, n = 10, mean ± SEM) was 29.2% ± 9%. Besides, in the data set with C57Bl/6J mice [7] (setting [11]), the “% of peptides per organ, bladder” value is 18.52% ± 5.7%; the “% of peptides per organ, kidneys” value is listed as 5.33% ± 2.1%; the “% of peptides per organ, liver” value was 6.13% ± 2.5%; the “% of peptides per organ, muscle” value is on record as 17 ± 4.25%. Also, the “% of peptides per organ, spleen” value in the data set with C57Bl/6J mice [7] (setting [11]) is on record as 17.05% ± 3.7%. Also, the weight result in the data set with C57Bl/6J mice [8] (100 μg/kg i.p. twice per week, 8 weeks, n = 10 per group) is reported as “do not induce modification of weight”. Besides, the food intake result in the data set on C57Bl/6J mice [8] (last week of 8-week treatment, n = 6) is reported as “do not impair the food intake”. In the data set on C57Bl/6J mice [9] (C57Bl/6J mice without fasting, isoflurane anesthesia, 30 min after i.p. injection at 100 μg/kg, compared to before injection, n = 10, mean ± SEM), the “increase of blood glucose after peptide injection” value is “about 44.5% ± 10.4%”. The “blood glucose level, mice fasted for 4 h or fed” value in the data set on C57Bl/6J mice [9] (C57Bl/6J mice, 8 weeks of treatment at 100 μg/kg twice per week, versus LDS micelles group, n = 10 per group) was “no difference of blood glucose level”.
